Tested on: 857933-349-R-J2-PDC complex spheroid viability
Experiment: Anticancer human tumor 857933-349-R-J2-PDC patient-derived colon adenocarcinoma cell line growth inhibition [POLQ]
Conditions: for IC50: curve of first compound; for viability, T/C: stronger effect = lower value
Method in brief: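 PDC + HUVEC + MSC complex spheroids; POLQ inhibitors ± partner drugs; top conc. at/near clinical Cmax, else 10 microM (SN-38 1 microM), half-log dilutions; 37 degrees C, 5% CO2.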
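Note: spheroids exposed to compounds for seven days before readout.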

## CC(=O)O[C@H]1C(=O)[C@@]2(C)[C@H]([C@H](OC(=O)c3ccccc3)[C@]3(O)C[C@H](OC(=O)[C@H](O)[C@@H](NC(=O)c4ccccc4)c4ccccc4)C(C)=C1C3(C)C)[C@]1(OC(C)=O)CO[C@@H]1C[C@@H]2O + COC1C(OC(N)=O)C(O)C(Oc2ccc3c(O)c(NC(=O)c4ccc(O)c(CC=C(C)C)c4)c(=O)oc3c2C)OC1(C)C
Second compound 0.0316 µM
  IC50: < 9.49 nM
Second compound 0.1 µM
  IC50: 14.6 nM
Second compound 0.316 µM
  IC50: 13.2 nM
Second compound 1 µM
  IC50: 12.2 nM
Second compound 3.16 µM
  IC50: 9.76 nM
Second compound 10 µM
  IC50: 11.3 nM
Second compound 0.0316 µM, first compound 0.00949 µM
  viability, T/C: 48.7%
Second compound 0.0316 µM, first compound 0.03 µM
  viability, T/C: 25%
Second compound 0.0316 µM, first compound 0.0949 µM
  viability, T/C: 19.1%
Second compound 0.0316 µM, first compound 0.3 µM
  viability, T/C: 17.6%
Second compound 0.0316 µM, first compound 0.949 µM
  viability, T/C: 15.8%
Second compound 0.0316 µM, first compound 3 µM
  viability, T/C: 20.8%
Second compound 0.1 µM, first compound 0.00949 µM
  viability, T/C: 61%
Second compound 0.1 µM, first compound 0.03 µM
  viability, T/C: 31.7%
Second compound 0.1 µM, first compound 0.0949 µM
  viability, T/C: 15.2%
Second compound 0.1 µM, first compound 0.3 µM
  viability, T/C: 15.4%
Second compound 0.1 µM, first compound 0.949 µM
  viability, T/C: 15.1%
Second compound 0.1 µM, first compound 3 µM
  viability, T/C: 16.5%
Second compound 0.316 µM, first compound 0.00949 µM
  viability, T/C: 57.8%
Second compound 0.316 µM, first compound 0.03 µM
  viability, T/C: 30.2%
Second compound 0.316 µM, first compound 0.0949 µM
  viability, T/C: 15.7%
Second compound 0.316 µM, first compound 0.3 µM
  viability, T/C: 19.7%
Second compound 0.316 µM, first compound 0.949 µM
  viability, T/C: 13.8%
Second compound 0.316 µM, first compound 3 µM
  viability, T/C: 25.4%
Second compound 1 µM, first compound 0.00949 µM
  viability, T/C: 58.7%
Second compound 1 µM, first compound 0.03 µM
  viability, T/C: 19.7%
Second compound 1 µM, first compound 0.0949 µM
  viability, T/C: 12.8%
Second compound 1 µM, first compound 0.3 µM
  viability, T/C: 20.5%
Second compound 1 µM, first compound 0.949 µM
  viability, T/C: 16.1%
Second compound 1 µM, first compound 3 µM
  viability, T/C: 20.3%
Second compound 3.16 µM, first compound 0.00949 µM
  viability, T/C: 50.7%
Second compound 3.16 µM, first compound 0.03 µM
  viability, T/C: 21.3%
Second compound 3.16 µM, first compound 0.0949 µM
  viability, T/C: 15.2%
Second compound 3.16 µM, first compound 0.3 µM
  viability, T/C: 16.4%
Second compound 3.16 µM, first compound 0.949 µM
  viability, T/C: 16.4%
Second compound 3.16 µM, first compound 3 µM
  viability, T/C: 19.3%
Second compound 10 µM, first compound 0.00949 µM
  viability, T/C: 54.5%
Second compound 10 µM, first compound 0.03 µM
  viability, T/C: 25.5%
Second compound 10 µM, first compound 0.0949 µM
  viability, T/C: 18.3%
Second compound 10 µM, first compound 0.3 µM
  viability, T/C: 17.4%
Second compound 10 µM, first compound 0.949 µM
  viability, T/C: 15.7%
Second compound 10 µM, first compound 3 µM
  viability, T/C: 20.7%

## CC(C)n1c(=O)n(C)c2cnc3cc(F)c(-c4ccc(OCCCN5CCCCC5)nc4)cc3c21 + COC1C(OC(N)=O)C(O)C(Oc2ccc3c(O)c(NC(=O)c4ccc(O)c(CC=C(C)C)c4)c(=O)oc3c2C)OC1(C)C
Second compound 0.0316 µM
  IC50: > 10000 nM
Second compound 0.1 µM
  IC50: > 10000 nM
Second compound 0.316 µM
  IC50: > 10000 nM
Second compound 1 µM
  IC50: > 10000 nM
Second compound 3.16 µM
  IC50: > 10000 nM
Second compound 10 µM
  IC50: > 10000 nM
Second compound 0.0316 µM, first compound 0.0316 µM
  viability, T/C: 102%
Second compound 0.0316 µM, first compound 0.1 µM
  viability, T/C: 108%
Second compound 0.0316 µM, first compound 0.316 µM
  viability, T/C: 97.3%
Second compound 0.0316 µM, first compound 1 µM
  viability, T/C: 105%
Second compound 0.0316 µM, first compound 3.16 µM
  viability, T/C: 109%
Second compound 0.0316 µM, first compound 10 µM
  viability, T/C: 111%
Second compound 0.1 µM, first compound 0.0316 µM
  viability, T/C: 113%
Second compound 0.1 µM, first compound 0.1 µM
  viability, T/C: 118%
Second compound 0.1 µM, first compound 0.316 µM
  viability, T/C: 100%
Second compound 0.1 µM, first compound 1 µM
  viability, T/C: 95%
Second compound 0.1 µM, first compound 3.16 µM
  viability, T/C: 121%
Second compound 0.1 µM, first compound 10 µM
  viability, T/C: 100%
Second compound 0.316 µM, first compound 0.0316 µM
  viability, T/C: 87.2%
Second compound 0.316 µM, first compound 0.1 µM
  viability, T/C: 120%
Second compound 0.316 µM, first compound 0.316 µM
  viability, T/C: 93.1%
Second compound 0.316 µM, first compound 1 µM
  viability, T/C: 85.1%
Second compound 0.316 µM, first compound 3.16 µM
  viability, T/C: 84.1%
Second compound 0.316 µM, first compound 10 µM
  viability, T/C: 105%
Second compound 1 µM, first compound 0.0316 µM
  viability, T/C: 74.4%
Second compound 1 µM, first compound 0.1 µM
  viability, T/C: 110%
Second compound 1 µM, first compound 0.316 µM
  viability, T/C: 103%
Second compound 1 µM, first compound 1 µM
  viability, T/C: 98.3%
Second compound 1 µM, first compound 3.16 µM
  viability, T/C: 87.8%
Second compound 1 µM, first compound 10 µM
  viability, T/C: 122%
Second compound 3.16 µM, first compound 0.0316 µM
  viability, T/C: 110%
Second compound 3.16 µM, first compound 0.1 µM
  viability, T/C: 112%
Second compound 3.16 µM, first compound 0.316 µM
  viability, T/C: 111%
Second compound 3.16 µM, first compound 1 µM
  viability, T/C: 89%
Second compound 3.16 µM, first compound 3.16 µM
  viability, T/C: 122%
Second compound 3.16 µM, first compound 10 µM
  viability, T/C: 123%
Second compound 10 µM, first compound 0.0316 µM
  viability, T/C: 89.6%
Second compound 10 µM, first compound 0.1 µM
  viability, T/C: 115%
Second compound 10 µM, first compound 0.316 µM
  viability, T/C: 106%
Second compound 10 µM, first compound 1 µM
  viability, T/C: 104%
Second compound 10 µM, first compound 3.16 µM
  viability, T/C: 85.7%
Second compound 10 µM, first compound 10 µM
  viability, T/C: 114%

— PubChem BioAssay AID1963836 (Molecular Pharmacology Branch, DTP, NCI, 2024)
